The values that follow come from ChEMBL document CHEMBL1201862, “PubChem BioAssay data set” (2004).

Structures are written as SMILES.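 1) Cells in 96-well plates. 2) Compound, 48 h, 5 concentrations. 3) Linear interpolation between surrounding doses. 4) Unreached endpoint = highest concentration. At the GI50, growth is halved.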 Active and inactive are the calls of the source. Cut-off read from the data, not from the text of the source: active = GI50 up to about 1.1 µM and inactive = higher.

Test systems include 786-0; HCC 2998; HT-29; IGROV-1; M14; MDA-MB-231; MDA-MB-435; Malme-3M; NCI-H460; NCI-H522; NCI/ADR-RES; OVCAR-4; OVCAR-8; SF-268; SK-MEL-2; SN12C; T47D; TK-10; U-251; UO-31.
What all share (experiment): NCI tumour cell line growth inhibition, 48 h

Regarding `O=C1C(O)=C(CCCCCCCCC2CCCCC2)C(=O)c2ccccc21` [MENOCTONE], the GI50 in the test on 786-0 was 6.01 µM (inactive); in the test on HCC 2998 it was 8.69 µM (inactive); with HT-29, 12 µM (inactive); in the test on IGROV-1, 5.3 µM (inactive); in the test with M14, 10.8 µM (inactive); in the test with MDA-MB-231, 4.56 µM (inactive). In addition, the GI50 in the test on MDA-MB-435 was 4.99 µM (inactive); with Malme-3M, 1.3 µM (inactive); with NCI-H460, 4.3 µM (inactive); in the test with NCI-H522 it was 6.24 µM (inactive); in the test on NCI/ADR-RES it was 6.34 µM (inactive); with OVCAR-4, 16.5 µM (inactive). The GI50 is 8.67 µM (inactive) in the test with OVCAR-8; 7.03 µM (inactive) in the test with SF-268; 11.8 µM (inactive) with SK-MEL-2; 7.89 µM (inactive) in the test with SN12C; 5.5 µM (inactive) in the test with T47D; 14.7 µM (inactive) with TK-10. Also, the results for the GI50 in the test on U-251 and in the test on UO-31 were 5.71 µM (inactive) and 8.34 µM (inactive), respectively.
As for `C[C@@H]1C[C@@H](O)[C@]2(O)O[C@@H]3C[C@@]4(C=O)[C@@H](CC[C@@H]5[C@@H]4CC[C@]4(C)[C@@H](C6=CC(=O)OC6)CC[C@]54O)C[C@H]3O[C@@H]2O1` [CALACTIN], the GI50 is 0.00617 µM (active) in the test with 786-0; 0.161 µM (active) in the test on HCC 2998; 0.021 µM (active) with HT-29; 0.00962 µM (active) with IGROV-1; 0.0222 µM (active) in the test on M14; 0.0153 µM (active) in the test with MDA-MB-231. Moreover, the GI50 is 0.0441 µM (active) with MDA-MB-435; 0.0119 µM (active) in the test on Malme-3M; 0.00464 µM (active) with NCI-H460; 0.00138 µM (active) with NCI-H522; 0.0306 µM (active) in the test with NCI/ADR-RES; 0.0222 µM (active) in the test on OVCAR-4. Besides, the GI50 in the test on OVCAR-8 was 0.0108 µM (active); in the test on SF-268, 0.00231 µM (active); in the test on SK-MEL-2, 0.0114 µM (active); with SN12C, 0.00301 µM (active); with T47D it was 0.0469 µM (active); in the test with TK-10, 0.00906 µM (active). Also, the GI50 is 0.019 µM (active) in the test on U-251 and 0.0171 µM (active) in the test on UO-31.
In the case of `COc1ccc(N2CCOCC2)cc1`, the GI50 in the test on 786-0, in the test with HCC 2998, in the test with HT-29, with IGROV-1, with M14 and in the test with MDA-MB-231 was > 100 µM (inactive) in each case. Also, the GI50 in the test with MDA-MB-435, in the test on Malme-3M, in the test on NCI-H460, in the test on NCI-H522, with NCI/ADR-RES and in the test with OVCAR-4 was > 100 µM (inactive) in each case. Besides, the GI50 in the test on OVCAR-8, in the test on SF-268, with SK-MEL-2, in the test on SN12C, in the test on T47D and in the test with TK-10 was > 100 µM (inactive) in each case. The GI50 in the test on U-251 and with UO-31 was > 100 µM (inactive) each time.
On to `CCN(CC)CCNc1ccc(/N=N/c2ccc(S(N)(=O)=O)cc2)c2ccccc12`, for which the GI50 in the test with 786-0 was 4.62 µM (inactive); in the test with HCC 2998 it was 8.75 µM (inactive); in the test on HT-29, 5.96 µM (inactive); with IGROV-1 it was 13.1 µM (inactive); with M14, 3.72 µM (inactive); in the test on MDA-MB-231 it was 4.33 µM (inactive). Also, the GI50 in the test on MDA-MB-435 is 7.35 µM (inactive); in the test with Malme-3M it was 15.7 µM (inactive); in the test on NCI-H460 it was 7.4 µM (inactive); in the test with NCI-H522, 14.9 µM (inactive); in the test with NCI/ADR-RES it was 24.2 µM (inactive); with OVCAR-4 it was 12.9 µM (inactive). In addition, the GI50 in the test with OVCAR-8 is 5.82 µM (inactive); in the test with SF-268, 10.1 µM (inactive); with SK-MEL-2, 5.9 µM (inactive); in the test on SN12C, 8.89 µM (inactive); in the test with T47D, 2.55 µM (inactive); in the test with TK-10 it was 19.1 µM (inactive). Moreover, the GI50 is 4.61 µM (inactive) in the test on U-251 and 5.56 µM (inactive) with UO-31.
Take `Oc1cccc(Nc2cc(O)nc(O)n2)c1`: the GI50 in the test on 786-0, in the test on HCC 2998, in the test with HT-29, in the test with IGROV-1, with M14 and with MDA-MB-231 was > 100 µM (inactive) each time. The GI50 in the test on MDA-MB-435, in the test on Malme-3M, with NCI-H460, with NCI-H522, in the test on NCI/ADR-RES and in the test with OVCAR-4 was > 100 µM (inactive) throughout. Moreover, the GI50 with OVCAR-8, in the test with SF-268, with SK-MEL-2, in the test on SN12C, in the test with T47D and with TK-10 was > 100 µM (inactive) throughout. The GI50 in the test on U-251 and in the test with UO-31 was > 100 µM (inactive) throughout.
In the case of `O=C1[C@H](c2ccccc2)C2c3ccccc3CCN12` (stereo not given in full), the GI50 in the test with 786-0, in the test on HCC 2998, in the test with HT-29, in the test on IGROV-1, in the test with M14 and in the test on MDA-MB-231 was > 10 µM (inactive) in each case. Besides, the GI50 is > 10 µM (inactive) with MDA-MB-435; 0.897 µM (active) in the test on Malme-3M; > 10 µM (inactive) in the test on NCI-H460; > 10 µM (inactive) with NCI-H522; > 10 µM (inactive) in the test with NCI/ADR-RES; > 10 µM (inactive) in the test with OVCAR-4. The GI50 with OVCAR-8, with SF-268, with SK-MEL-2, in the test with SN12C, with T47D and with TK-10 was > 10 µM (inactive) in each case. For the same compound, the GI50 with U-251 was > 10 µM (inactive); in the test with UO-31 it was > 100 µM (inactive).
For the compound `OC1CCCCCCCCCCC1[S+]1CCCC1.O[B-](F)(F)F` (stereo not given), the GI50 in the test on 786-0 was > 100 µM (inactive); in the test with HCC 2998, > 100 µM (inactive); in the test with HT-29, 88.9 µM (inactive); in the test with IGROV-1, > 100 µM (inactive); with M14, > 100 µM (inactive); in the test with MDA-MB-231, > 100 µM (inactive). Further, the GI50 in the test on MDA-MB-435 was > 100 µM (inactive); with Malme-3M, 42 µM (inactive); in the test on NCI-H460, > 100 µM (inactive); in the test with NCI-H522, > 100 µM (inactive); in the test with NCI/ADR-RES it was > 100 µM (inactive); with OVCAR-4, 85.9 µM (inactive). Also, the GI50 with OVCAR-8, in the test on SF-268, with SK-MEL-2, with SN12C, in the test with T47D and in the test with TK-10 was > 100 µM (inactive) each time. Besides, the GI50 in the test with U-251 and in the test with UO-31 was > 100 µM (inactive) in each case.
